Consider five molecules from patent US8247603B2, “Deuterated catecholamine derivatives and medicaments comprising said compounds” (Birds Pharma GmbH Berolina Innovative, priority 2006, dated 2012).

Data set [1] concerns striatal output of norepinephrine. Kind of data set: Striatal output of norepinephrine. The class given is in vivo. The following applies: compared to L-DOPA.
Data set [2] has as its system dopamine output in the striatum. Kind of data set: Striatal dopamine output measured by microdialysis. The class given is in vivo, Male Wistar rats. The following applies: for Increase of dopamine in the striatum compared to L-DOPA (comparison of AUC0-t): 50 mg/kg i.p., relative to L-DOPA; for Increase of dopamine in the striatum compared to L-DOPA (comparison of AUC0-t) / Baseline corrected dopamine output in the striatum, AUC0-t: Male Wistar rats; for Baseline corrected dopamine output in the striatum, AUC0-t: 50 mg/kg intraperitoneal, 10 mg/kg Carbidopa i.p. 30 min before, microdialysis in dorsolateral striatum. The procedure:
The striatal output of dopamine was measured in Male Wistar rats following intraperitoneal administration of 50 mg/kg L-2-Amino-3-(3,4-dihydroxyphenyl) propionic acid (L-DOPA), L-2-Amino-2,3,3-trideutero-3-(3,4-dihydroxyphenyl) propionic acid (WO-A 2004/056724, Example 6) and L-2-Amino-2,3-dideutero-3-(3,4-dihydroxyphenyl) propionic acid (Example 6), respectively. Male wistar rats (BK Universal, Sollentuna, Sweden) weighing about 300 g at the time of experiment were anaesthetized with a cocktail containing fentanyl citrate (0.39 mg/kg) and fluanisone (12.5 mg/kg, Hypnorm®, Janssen-Cilag) and midazolam (6.25 mg/kg, Dormicum®, Roche) diluted in distilled water (1:1:2; 5 ml/kg i.p.) and mounted in a stereotaxic frame. Dialysis probes were implanted in the dorsolateral striatum (AP: +0.6: ML+3.0: DV −6.2 relative to bregma and the dural surface according to the atlas of Paxinos and Watson (1998)). Dialysis occurs through a semipermeable membrane (Filtral AN69, Hospal Industrie, France) with an active surface length of 3.5 mm. Dialysis experiments were conducted approximately 48 h after surgery in freely moving rats. The rats received 30 min before administration of test items 10 mg/kg Carbidopa, (i.p.). The dialysis probe was perfused with a physiological perfusion solution (Apoteksbolaget, Sweden) at a rate of […] set by a microinfusion pump (Harvard Apparatus, Holliston, Mass.). Dialysate was collected over 15 min intervals and automatically injected into a high performance liquid chromatography (HPLC) system. On-line quantification of dopamine in the dialysate was accomplished by electro-chemical detection (ESA, Chelmsford, Mass.). The location of microdialysis probes was verified in slices of formalin-fixed tissue stained with neutral red. The baseline corrected concentrations (fmol/min) were plotted over the time.

The nature of data set [3]: Therapeutic equivalence during continuous intravenous infusion. The class given is in vivo. From the text: The optimal infusion rate for L-DOPA methyl ester was 2.7 times that required for L-DOPA (Stocchi et al. 1992, Movement Disorders, 7: 249-256).
The test system of a further data set is dopamine in the striatum. The following applies: male Wistar rats; known from WO-A 2004/056724; cited from earlier work.
In data set [4] the test system is Parkinson's disease exhibiting severe on-off phenomena. The following applies: continuous intravenous infusion, patients with Parkinson's disease with severe on-off phenomena; cited from earlier work.
The conditions of data set [5]: cited from earlier work.
For data set [6] the following is noted: given orally or intraperitoneally, on a molar basis; cited from earlier work.

Turning to `[2H][C@@H](c1ccc(O)c(O)c1)[C@]([2H])(N)C(=O)O` [Example 6, L-2-Amino-2,3(S)-dideutero-3-(3,4-dihydroxyphenyl) propionic acid], the “Striatal output / formation of norepinephrine” value in data set [1] was “does not block the formation of norepinephrine”. Further, in data set [2], the “Increase of dopamine in the striatum compared to L-DOPA (comparison of AUC0-t)” value is reported as “threefold higher” and the “Baseline corrected dopamine output in the striatum, AUC0-t” value (from here on “Baseline corrected dopamine output”) is 685 fmol/min*min. Besides, the “Increase of dopamine in the striatum compared to L-2-Amino-2,3,3-trideutero-3-(3,4-dihydroxyphenyl) propionic acid” value in data set [2] (Example 15 and Table 1) was “significantly more”.
As for `[2H][C@@H](c1ccc(O)c(O)c1)[C@]([2H])(N)C(=O)OC` [Example 7, L-2-Amino-2,3(S)-dideutero-3-(3,4-dihydroxyphenyl)methyl propionate], in data set [3], the “Therapeutic equivalence to L-2-Amino-2,3-dideutero-3-(3,4-dihydroxyphenyl) propionic acid” value is given as “therapeutically equivalent”.
Regarding `[2H]C([2H])(c1ccc(O)c(O)c1)[C@]([2H])(N)C(=O)O` [L-2-Amino-2,3,3-trideutero-3-(3,4-dihydroxyphenyl) propionic acid], the “Striatal output / formation of norepinephrine” value in data set [1] is reported as “reduces the striatal output of norepinephrine”. Besides, the “Increase of dopamine in the striatum compared to non-deuterated L-DOPA” value with dopamine in the striatum was “significantly more”. For the same molecule, in data set [2], the “Increase of dopamine in the striatum compared to L-DOPA (comparison of AUC0-t)” value is “about twice as high” and the “Baseline corrected dopamine output” value was 533 fmol/min*min.
Take `N[C@@H](Cc1ccc(O)c(O)c1)C(=O)O` [L-2-Amino-3-(3,4-dihydroxyphenyl) propionic acid]: in data set [2], the “Baseline corrected dopamine output” value was determined as 228 fmol/min*min.
Take `COC(=O)[C@@H](N)Cc1ccc(O)c(O)c1` [L-DOPA methyl ester]: in data set [4], the “Optimal infusion rate relative to that required for L-DOPA” value is listed as 2.7 times. For the same molecule, the Solubility result in data set [5] is recorded as “highly soluble”. In addition, in data set [6], the “Equivalence to L-DOPA in animal experiments” value was “equivalent on a molar basis to L-DOPA”.
